Series [1] in a line: Lipophilicity of the preferred PFC (statement). Format: physicochemical. An excerpt:
Being that the PFCs are slightly lipophilic at body temperature and would help in the transport of oxygen into and removal of carbon dioxide from the skin tissue, PFCs can accelerate the healing process of a wound in a tissue.

Series [2] is described as follows: Physical properties of F-tert-butylcyclohexane. Format: physicochemical. Also on record: Kinematic Viscosity: unit not given here. An excerpt: Oxycyte® is based on the perfluorocarbon F-tert-butylcyclohexane, a saturated alicyctic PFC (molecular formula C10F20) and can be used as a PFC composition in the methods and uses described herein. Physical properties of F-tert-butylcyclohexane are as follows: […]

Consider `FC(F)(F)C(C(F)(F)F)(C(F)(F)F)C1(F)C(F)(F)C(F)(F)C(F)(F)C(F)(F)C1(F)F` [F-tert-butylcyclohexane, perfluoro-tert-butylcyclohexane], for which the lipophilicity entry is given as “only slightly lipophilic” in series [1] (at body temperature) and “not lipophilic” in series [1] (at room temperature). Besides, the Density in series [2] is listed as 1.97 g/mL. Moreover, the “Kinematic Viscosity” value in series [2] amounted to 5.378. Besides, in series [2] (25° C.), the “Vapor Pressure @ 25° C.” value is given as 3.8 mmHg. For the same compound, the “Vapor Pressure @ 37° C.” value in series [2] (37° C.) came to 4.4 mmHg.

Values taken from US20130289471A1, “GAS BASED WOUND AND TISSUE THERAPEUTICS” (Virginia Commonwealth University, priority 2008, published 2013).
